# According to patent US10806783B2, “Vaccine compositions” (priority 2014, dated 2020):
# Test system: Influenza virus
# Assay type: in vivo
# Conditions: Example 4, FIG. 3; BALB-c mice, subcutaneous, day 0 and day 21; various time points; 2 μg antigen, freeze-dried and stored at 45° C.
compound,measurement,value
"CN(C)CC(=O)O [dimethylglycine, Dimethylglycine]",HIA titre (effect with different excipients),antigen sparing effect and acceleration of onset of immunity observed with polyethyleneimine are also observed
